Results published in patent US20240041042A1, “1-(PYRIDYL)-5-AZINYLPYRAZOLE DERIVATIVES, AND THEIR USE FOR CONTROL OF UNDESIRED PLANT GROWTH” (Bayer Aktiengesellschaft, priority 2020, published 2024).

Tests used:
Format in all cases: in vivo
[1] = system: Setaria viridis (SETVI); assay: Post-emergence herbicidal action against SETVI
Procedure, shortened: (§1)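 Values are percent visual activity (0% like control, 100% plants dead) after about 3 weeks in the greenhouse. Treatment: post-emergence spray at one-leaf stage, 600 l/ha spray volume, 0.5% additive, doses 320 g/ha or lower.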

[2] = system: Alopecurus myosuroides (ALOMY); assay: Post-emergence herbicidal action against ALOMY; details: visual rating about 3 weeks after treatment vs untreated controls (100% = plants have died, 0% = like control plants)
Procedure, shortened: as §1

[3] = system: Polygonum convolvulus (POLCO); assay: Post-emergence herbicidal action against POLCO
Procedure, shortened: as §1

[4] = system: Polygonum convolvulus (POLCO); assay: Pre-emergence herbicidal action against POLCO
Procedure, shortened: (§2)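 Application rates ran to 320 g/ha or lower, with several dosages tested on the same weeds. The compound, as wettable powder or emulsion concentrate, is sprayed pre-emergence onto soil over sown seeds; greenhouse growth follows, and effect is rated visually after roughly 3 weeks.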

[5] = system: Pharbitis purpurea (PHBPU); assay: Post-emergence herbicidal action against PHBPU
Procedure, shortened: as §1

[6] = system: Lolium rigidum (LOLRI); assay: Post-emergence herbicidal action against LOLRI
Procedure, shortened: as §1

[7] = system: Setaria viridis (SETVI); assay: Pre-emergence herbicidal action against SETVI
Procedure, shortened: as §2

[8] = system: Abutilon theophrasti (ABUTH); assay: Pre-emergence herbicidal action against ABUTH; details: 100% = plants have died
Procedure, shortened: as §2

[9] = system: Amaranthus retroflexus (AMARE); assay: Pre-emergence herbicidal action against AMARE; details: visual scoring after about 3 weeks vs untreated controls
Procedure, shortened: as §2

[10] = system: Avena fatua (AVEFA); assay: Pre-emergence herbicidal action against AVEFA; details: visual scoring after about 3 weeks vs untreated controls
Procedure, shortened: as §2

[11] = Dosage column 320 g/ha (title prints 3200 g/ha), scored visually after about 3 weeks

**Q.** How did the “Post-emergence action against SETVI in %” value ([1]; dosage 80 g/ha) turn out when `C[C@@H](Oc1nn(-c2ncccc2F)c(-c2ccc(F)nc2)c1C1CC1)C(=O)O` [Example I-342] was run?
**A.** 90%

**Q.** And the “Post-emergence action against SETVI in %” value ([1]; dosage 320 g/ha)?
**A.** 90%

**Q.** And the “Post-emergence action against ALOMY in %” value ([2]; 80 g/ha)?
**A.** 100%

**Q.** And the “Post-emergence action against ALOMY in %” value ([2]; 320 g/ha)?
**A.** 100%

**Q.** And the “Post-emergence action against POLCO in %” value ([3]; dosage 80 g/ha)?
**A.** 80%

**Q.** What about the “Post-emergence action against POLCO in %” value ([3]; dosage 320 g/ha) of the same compound?
**A.** 90%

**Q.** And the “Pre-emergence action against POLCO in %” value ([4]; dosage 80 g/ha)?
**A.** 90%

**Q.** And the “Pre-emergence action against POLCO in %” value ([4]; dosage 320 g/ha)?
**A.** 100%

**Q.** And the “Post-emergence action against PHBPU in %” value ([5]; dosage 80 g/ha)?
**A.** 80%

**Q.** What about the “Post-emergence action against PHBPU in %” value ([5]; dosage 320 g/ha) of the same compound?
**A.** 90%

**Q.** What about the “Post-emergence action against LOLRI in %” value ([6]; dosage 80 g/ha) of the same compound?
**A.** 90%

**Q.** And the “Post-emergence action against LOLRI in %” value ([6]; dosage 320 g/ha)?
**A.** 90%

**Q.** And the “Pre-emergence action against SETVI in %” value ([7]; dosage 80 g/ha)?
**A.** 90%

**Q.** And the “Pre-emergence action against SETVI in %” value ([7]; dosage 320 g/ha)?
**A.** 100%

**Q.** And the “Pre-emergence action against ABUTH” value [8, 11]?
**A.** 90%

**Q.** And the “Pre-emergence action against AMARE in %” value ([9]; 80 g/ha)?
**A.** 100%

**Q.** And the “Pre-emergence action against AMARE in %” value ([9]; 320 g/ha)?
**A.** 100%

**Q.** What about the “Pre-emergence action against AVEFA in %” value ([10]; 80 g/ha) of the same compound?
**A.** 90%

**Q.** And the “Pre-emergence action against AVEFA in %” value ([10]; 320 g/ha)?
**A.** 100%

**Q.** For `C[C@@H](Oc1nn(-c2ncccc2F)c(-c2ccc(F)nc2)c1I)C(=O)O` [Example I-343], which “Post-emergence action against SETVI in %” value ([1]; dosage 80 g/ha) is on record?
**A.** 90%

**Q.** And the “Post-emergence action against SETVI in %” value ([1]; dosage 320 g/ha)?
**A.** 90%

**Q.** What about the “Post-emergence action against ALOMY in %” value ([2]; 80 g/ha) of the same compound?
**A.** 90%

**Q.** What about the “Post-emergence action against ALOMY in %” value ([2]; 320 g/ha) of the same compound?
**A.** 100%

**Q.** And the “Post-emergence action against POLCO in %” value ([3]; dosage 80 g/ha)?
**A.** 80%

**Q.** And the “Post-emergence action against POLCO in %” value ([3]; dosage 320 g/ha)?
**A.** 80%

**Q.** And the “Pre-emergence action against POLCO in %” value ([4]; dosage 80 g/ha)?
**A.** 90%

**Q.** What about the “Pre-emergence action against POLCO in %” value ([4]; dosage 320 g/ha) of the same compound?
**A.** 100%

**Q.** And the “Post-emergence action against PHBPU in %” value ([5]; dosage 320 g/ha)?
**A.** 90%

**Q.** What about the “Post-emergence action against LOLRI in %” value ([6]; dosage 320 g/ha) of the same compound?
**A.** 90%

**Q.** What about the “Pre-emergence action against SETVI in %” value ([7]; dosage 80 g/ha) of the same compound?
**A.** 100%

**Q.** And the “Pre-emergence action against SETVI in %” value ([7]; dosage 320 g/ha)?
**A.** 100%

**Q.** What about the “Pre-emergence action against ABUTH” value ([8]; 80 g/ha, scored visually after about 3 weeks vs untreated controls, 0% = like control plants) of the same compound?
**A.** 80%

**Q.** And the “Pre-emergence action against ABUTH” value [8, 11]?
**A.** 100%

**Q.** And the “Pre-emergence action against AMARE in %” value ([9]; 80 g/ha)?
**A.** 100%

**Q.** And the “Pre-emergence action against AMARE in %” value ([9]; 320 g/ha)?
**A.** 100%

**Q.** And the “Pre-emergence action against AVEFA in %” value ([10]; 80 g/ha)?
**A.** 80%

**Q.** And the “Pre-emergence action against AVEFA in %” value ([10]; 320 g/ha)?
**A.** 90%

**Q.** How did the “Post-emergence action against SETVI in %” value ([1]; dosage 80 g/ha) turn out when `CCOC(=O)[C@@H](C)Oc1nn(-c2ncccc2F)c(-c2ccc(F)nc2)c1C1CC1` [Example I-375] was run?
**A.** 90%

**Q.** What about the “Post-emergence action against SETVI in %” value ([1]; dosage 320 g/ha) of the same compound?
**A.** 90%

**Q.** And the “Post-emergence action against ALOMY in %” value ([2]; 80 g/ha)?
**A.** 100%

**Q.** And the “Post-emergence action against ALOMY in %” value ([2]; 320 g/ha)?
**A.** 100%

**Q.** What about the “Post-emergence action against POLCO in %” value ([3]; dosage 80 g/ha) of the same compound?
**A.** 80%

**Q.** And the “Post-emergence action against POLCO in %” value ([3]; dosage 320 g/ha)?
**A.** 90%

**Q.** What about the “Pre-emergence action against POLCO in %” value ([4]; dosage 80 g/ha) of the same compound?
**A.** 90%

**Q.** And the “Pre-emergence action against POLCO in %” value ([4]; dosage 320 g/ha)?
**A.** 90%

**Q.** What about the “Post-emergence action against PHBPU in %” value ([5]; dosage 80 g/ha) of the same compound?
**A.** 80%

**Q.** What about the “Post-emergence action against PHBPU in %” value ([5]; dosage 320 g/ha) of the same compound?
**A.** 90%

**Q.** What about the “Post-emergence action against LOLRI in %” value ([6]; dosage 80 g/ha) of the same compound?
**A.** 90%

**Q.** What about the “Post-emergence action against LOLRI in %” value ([6]; dosage 320 g/ha) of the same compound?
**A.** 90%

**Q.** And the “Pre-emergence action against SETVI in %” value ([7]; dosage 80 g/ha)?
**A.** 90%

**Q.** And the “Pre-emergence action against SETVI in %” value ([7]; dosage 320 g/ha)?
**A.** 100%

**Q.** And the “Pre-emergence action against ABUTH” value [8, 11]?
**A.** 100%

**Q.** And the “Pre-emergence action against AMARE in %” value ([9]; 80 g/ha)?
**A.** 100%

**Q.** And the “Pre-emergence action against AMARE in %” value ([9]; 320 g/ha)?
**A.** 100%

**Q.** What about the “Pre-emergence action against AVEFA in %” value ([10]; 80 g/ha) of the same compound?
**A.** 90%

**Q.** And the “Pre-emergence action against AVEFA in %” value ([10]; 320 g/ha)?
**A.** 100%
